Data: patent publication US5602156A, “Method for inhibiting metalloproteinase expression” (The United States of America as represented by the …, priority 1994, dated 1997)

Key:
MMP-2 [1] = assay: Gelatin zymography of conditioned media from human cancer cell lines (gelatinase activity); assay type: cell-based; conditions: for reduction of activated MMP-2: 20 μM compound 1
Experimental: (§1) Conditioned media for zymogram and Western blot analysis were produced under serum-free conditions. Cells (2 million) were plated in 25 cm^2 flasks in serum-containing medium and cultured overnight. Serum-containingmedium was removed and the cell monolayers were washed twice with DMEM/ITS (DMEM containing insulin (5 μg/mL), transferrin (5 μg/mL), and selenium (5 ng/mL)). The resultant cells were fed with 3 mL of DMEM/ITS and additives as described in the Examples for two 24 hour periods. Conditioned media samples were collected at 24 hours and cells were refed with fresh DMEM/ITS containing the described additives for an additional 24 hours. Conditioned media samples were centrifuged to remove cells and debris then frozen at -20° C. until use. Freeze and thaw cycles of the conditioned media were limited to no more than two.
Quantitation of the effect was evaluated by laser densitometry of the resultant zymograms.
Aliquots of conditioned medium (15 μL) were electrophoresed on gelatin-containing 10% PAGE gels under nonreducing but denaturing conditions. These conditions allow the different gelatin-degrading species (MMPs) to separate by size. […] Bands of clearing, seen after Coomassie blue staining correspond to areas of gelatinase activity.
OVCAR3 conditioned media samples were concentrated 10-fold prior to zymography.
Known concentrated conditioned medium from HT1080 cells was used for identification of the gelatinase species as marked in FIG. 1A: 92 kDa, gelatinase B/MMP-9; 72 kDa, gelatinase A/MMP-2 latent form; 65 kDa intermediate and 62 kDa activated forms of MMP-2. The activated form of MMP-2 results from cleavage of the amino terminal domain.
Lane 1 corresponds to cells treated only with 0.05% DMSO as a control.
Quantitation of the zymograms in FIGS. 1A-1C were carded out using laser densitometry.
The effect of structural analogs on the gelatinase activity of A2058 cells was similarly evaluated.

MMP-2 [2] = assay: Gelatin zymography of A2058 cells, compound 1 with or without TGF-β1 (densitometry); assay type: cell-based, human; conditions: control band = 100%
Experimental: as §1
(§2) A2058 human melanoma cells, human HT1080 fibrosarcoma cells, and OVCAR3 human ovarian cancer cells were incubated with increasing concentrations of compound 1 (0.2-20 μM) or DMSO control (0.05%) and subjected to gelatin zymography. Aliquots of conditioned medium (15 μL) were electrophoresed on gelatin-containing 10% PAGE gels under nonreducing but denaturing conditions. These conditions allow the different gelatin-degrading species (MMPs) to separate by size. The enzymes renature after removal of the SDS by incubation of the gel with 2.5 % Triton X-100, and degrade the gelatin substrate present in the polyacrylamide gel upon overnight incubation in low salt collagenase buffer. Bands of clearing, seen after Coomassie blue staining correspond to areas of gelatinase activity.
(§3) A2058 and HT1080 cells were incubated with compound 1 (2 μM), with or without TGF-β1 (5 ng/mL) for 24 and 48 hours prior to harvest of conditioned media. Aliquots were subjected to gelatin zymography as described in Example 1. Known concentrated conditioned medium from HT1080 cells was used for identification of the gelatinase species (92 kDa, gelatinase B/MMP-9; 72 kDa, gelatinase A/MMP-2 latent form; 65 kDa intermediate and 62 kDa activated forms of MMP-2).
(§4) Lane 1 is the control resulting from treatment of the cells with 0.1% DMSO. Lanes 2 and 3 correspond to those cells which are treated with 2 μM compound 1 in the absence of TGF-β1 for 24 and 48 hours, respectively. Lane 4 corresponds to cells which have been treated with TGF-β1 in the absence of compound 1. Lane 5 corresponds to cells which have been treated with TGF-β1 for 48 hours with compound 1 being added to the incubation mixture for the final 24 hours. Lane 6 corresponds to cells which have been treated for 48 hours with both TGF-β1 and compound 1.
(§5) *The control band was defined as 100% gelatinase activity and the other
(§6) bands were normalized to it. Numbers reflect triplicate measurements from
(§7) each zymogram band of representative zymograms. Standard deviations, not

MMP-2 [3] = assay: Gelatin zymography of HT1080 cells, compound 1 with or without TGF-β1 (densitometry); assay type: cell-based, human; conditions: control band = 100%
Experimental: as §1, §2, §3, §4, §5, §6, §7

MMP-9 = assay: Gelatin zymography of HT1080 cells, compound 1 with or without TGF-β1 (densitometry), 92 kDa; assay type: cell-based, human; conditions: control band = 100%
Experimental: as §1, §2, §3, §4, §5, §6, §7

gelatinase activity = assay: Gelatin zymography of A2058 and HT1080 cells, compound 1 with or without TGF-β1 (results in words); assay type: cell-based, human
Experimental: as §3, §4

[4] = tested on: proliferation and metastasis; conditions: cited from earlier work
[5] = with TGF-β1, 2 μM compound 1, 24 hr
[6] = with TGF-β1, 2 μM compound 1, 48 hr
[7] = without TGF-β1, 2 μM compound 1, 24 hr
[8] = without TGF-β1, 2 μM compound 1, 48 hr
[9] = with TGF-β, 2 μM compound 1, 24 hr
[10] = with TGF-β, 2 μM compound 1, 48 hr
[11] = without TGF-β, 2 μM compound 1, 24 hr
[12] = without TGF-β, 2 μM compound 1, 48 hr

## NC(=O)c1nnn(Cc2cc(Cl)c(C(=O)c3ccc(Cl)cc3)c(Cl)c2)c1N [Compound 1, 5-amino-l-(4-(4-chlorobenzoyl)-3,5-dichlorobenzyl)-1,2,3-triazole-4-carboxamide]
MMP-2 [1]; A2058, 10 μM (FIG. 1E)
  MMP-2 activity: reduced MMP-2 activity
MMP-2 [1]; A2058
  reduction of activated MMP-2: almost complete reduction
MMP-2 [1]; HT1080
  reduction of activated MMP-2: 75%
MMP-2 [1]; HT1080 cell line
  shift of MMP species: shift to activated species with subsequent decrease in total activity
MMP-2 [1]; OVCAR3
  reduction of activated MMP-2: almost complete reduction
MMP-2 [1]; all cell lines (HT1080, A2058, OVCAR3), normalized to DMSO control
  reduction in activity of all MMP-2 species: greater than 80%
MMP-2 [1]; three human cancer cell lines, 0.2-20 μM
  reduction of MMP activity: dose dependent reduction of MMP activity
MMP-2 [1]; zymograms of FIG. 1
  inhibition of MMP-2 gelatinase activity (FIG. 1): dose-dependent inhibition
MMP-2 [2]; [5]
  gelatinase activity, 65 + 62 kDa: 0%
  gelatinase activity, 72 kDa: 44%
MMP-2 [2]; [6]
  gelatinase activity, 65 + 62 kDa: 0%
  gelatinase activity, 72 kDa: 36%
MMP-2 [2]; [7]
  gelatinase activity, 65 + 62 kDa: 14%
  gelatinase activity, 72 kDa: 84%
MMP-2 [2]; [8]
  gelatinase activity, 65 + 62 kDa: 0%
  gelatinase activity, 72 kDa: 45%
MMP-2 [3]; [9]
  gelatinase activity, 65 + 62 kDa: 194%
  gelatinase activity, 72 kDa: 52%
MMP-2 [3]; [10]
  gelatinase activity, 65 + 62 kDa: 116%
  gelatinase activity, 72 kDa: 10%
MMP-2 [3]; [11]
  gelatinase activity, 65 + 62 kDa: 125%
  gelatinase activity, 72 kDa: 10%
MMP-2 [3]; [12]
  gelatinase activity, 65 + 62 kDa: 24%
  gelatinase activity, 72 kDa: 0.6%
MMP-9; [9]
  gelatinase activity, 92 kDa: 78%
MMP-9; [10]
  gelatinase activity, 92 kDa: 14%
MMP-9; [11]
  gelatinase activity, 92 kDa: 73%
MMP-9; [12]
  gelatinase activity, 92 kDa: 12%
Gelatinase activity; A2058 and HT1080, 2 μM, 24 and 48 hr, no TGF-β1
  reduction of gelatinase activity: increased from 24 to 48 hr exposure
Gelatinase activity; TGF-β1 48 hr, compound 1 over the final 24 hr
  effect on TGF-β1-increased gelatinase activity: little effect
Gelatinase activity; TGF-β1 with compound 1 co-incubation for 48 hr
  effect on TGF-β1-increased gelatinase activity: inhibited
[4]
  antiproliferative and antimetastatic activities: antiproliferative and antimetastatic activities
